Source: patent publication US20160367537A1, “COMPOSITIONS AND METHODS FOR THE TREATMENT AND MANAGEMENT OF STEATOSIS IN HUMAN LIVER” (WAKE FOREST UNIVERSITY HEALTH SCIENCES, priority 2013, published 2016)

What was measured:
[1] = system: lysosomal acid lipase deficient (LAL−/−) mice; assay: Mouse model of lysosomal acid lipase deficiency, PRD125 as diet admixture; assay type: in vivo
Description: In the present example, hepatic lipid concentrations and content in a lysosomal acid lipase deficient (LAL^−/−) mouse model were determined in the presence and absence of selective SOAT2 inhibitors. The data are for male lysosomal acid lipase deficient mice on a FVB background. The mice were fed a chow diet for 21 days. During the subsequent 52 or 53 days, 5 mice were fed the chow diet without drug and 3 of 5 to be studied were fed a chow diet supplemented with PRD125 at a dose of 10 mg/kg/day. Animals were ex-sanguinated at 52 days and the blood plasma was collected in EDTA and frozen in liquid nitrogen. The livers, small intestine, and spleen were flushed with saline and rinsed, then also snap frozen in liquid nitrogen. All organs were weighed, and after freezing, approximately 25 mg of tissue was extracted in chloroform methanol, 2:1, for subsequent lipid determinations. Free and total cholesterol was measured enzymatically and esterified cholesterol was determined by difference. Aliquots of the terminal plasma were used for measurement of tissue enzymes.
Mice were studied starting at 21 days of age and studied for 52 to 53 days. Treatment with PRD125 was at 10 mg/kg/day and the compound was given as a diet admixture.

Stability in the diet = assay type: physicochemical; details: diet admixture
SOAT2 = target: T1, SOAT2 (Homo sapiens, UniProt O75908); assay: Specificity for SOAT2 compared to SOAT1
T1 sequence (O75908 1-522): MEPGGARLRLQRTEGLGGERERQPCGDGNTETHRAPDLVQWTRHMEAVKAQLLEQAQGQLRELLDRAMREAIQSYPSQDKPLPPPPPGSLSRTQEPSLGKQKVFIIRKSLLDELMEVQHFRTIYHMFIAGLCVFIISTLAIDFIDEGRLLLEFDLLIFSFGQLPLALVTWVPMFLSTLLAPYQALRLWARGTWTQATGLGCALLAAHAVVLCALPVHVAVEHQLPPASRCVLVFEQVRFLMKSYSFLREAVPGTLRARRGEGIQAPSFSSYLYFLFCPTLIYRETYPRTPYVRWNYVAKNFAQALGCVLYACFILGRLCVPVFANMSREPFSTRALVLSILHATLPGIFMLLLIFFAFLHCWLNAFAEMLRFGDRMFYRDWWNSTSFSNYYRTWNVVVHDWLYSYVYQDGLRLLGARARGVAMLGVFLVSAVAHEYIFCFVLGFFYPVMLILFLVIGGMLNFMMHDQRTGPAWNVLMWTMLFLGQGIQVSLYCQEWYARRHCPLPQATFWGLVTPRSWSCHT

[2] = Absorption after oral intake; details: given in the diet

- decrease of liver cholesterol content versus untreated mice ([1]; LAL−/− mice, 10 mg/kg/day as diet admixture): 65%
- stability in the diet (Stability in the diet): stable
- specificity to SOAT2 compared to SOAT1 (SOAT2): over 5000 fold
- absorption [2]: easily absorbed
SMILES: Cc1ccccc1[C@@H]1OCC2(C)C3C[C@H](OC(=O)c4ccc(C#N)cc4)[C@@]4(C)Oc5cc(-c6cccnc6)oc(=O)c5[C@H](O)C4[C@@]3(C)CC[C@@H]2O1 (some centres unmarked) [PRD125]
- serum enzyme levels ([1]; male LAL−/− mice, 10 mg/kg/day as diet admixture, terminal plasma): reduced
- liver cholesterol esters ([1]; male LAL−/− mice, FVB background, 10 mg/kg/day as diet admixture, from 21 to 52 or 53 days of age): significantly reduced
- oral effectiveness ([1]; oral, does not need booster injections): effective orally
- cholesterol content of liver ([1]; treated LAL−/− mice, 10 mg/kg/day as diet admixture (untreated approximately 146 mg/liver)): ~39 mg/liver
